Experimental findings from ChEMBL document CHEMBL1201862, “PubChem BioAssay data set” (2004) are described below.

Among the test systems are DMS-273; KM-20L2; DMS-114; M19-MEL; LXFL 529; SNB-78; DLD-1; XF498; RXF 631.
What all share (assay): NCI-60 cell line screen, 48 h

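48-hour exposure; five concentrations; linearly interpolated endpoints. Here, GI50 denotes the concentration required for 50% inhibition of growth.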 Calls of active or inactive are those of the source. Rule as the data show it: active = GI50 up to about 1.1 µM and inactive = higher.

Take `Oc1ccc2ccccc2c1/N=N/c1ccc(F)cc1`: the GI50 in the experiment with DMS-273, in the experiment on KM-20L2, in the experiment on DMS-114, with M19-MEL and with LXFL 529 was > 100 µM (inactive) each time.

As for `CN(Cc1cnc2nc(N)nc(N)c2n1)c1ccc(C(=O)NC(CCC(=O)O)C(=O)O)c2ccccc12` (centres undefined), the GI50 in the experiment with SNB-78 was > 65 µM (inactive); with DLD-1, 0.01 µM (active); in the experiment with DMS-273, 0.01 µM (active); in the experiment with KM-20L2, 0.01 µM (active); in the experiment with DMS-114 it was 0.000847 µM (active); in the experiment with XF498 it was > 100 µM (inactive). In addition, the GI50 is 0.01 µM (active) with M19-MEL and 0.00135 µM (active) in the experiment with LXFL 529.

On to `Cc1c2cc[n+](CCN3CCCCC3)cc2c(C)c2c1[nH]c1ccc(O)cc12`, for which the GI50 was 3.75 µM (inactive) in the experiment with SNB-78; 4.6 µM (inactive) in the experiment on DLD-1; 1.72 µM (inactive) with DMS-273; 6.43 µM (inactive) in the experiment with KM-20L2; 1.51 µM (inactive) with DMS-114; 0.982 µM (active) with M19-MEL.

For the compound `C=CCC12CCC(=O)C=C1CCC1(C2)OCCO1` (centres undefined), the GI50 in the experiment with SNB-78, in the experiment on DLD-1, in the experiment with RXF 631, in the experiment with DMS-273, with KM-20L2 and in the experiment with DMS-114 was > 100 µM (inactive) in each case. Moreover, the GI50 with M19-MEL and with LXFL 529 was > 100 µM (inactive) in each case.

For the compound `NN1C(=O)C(CCO)S/C1=N/N=C1/SC(CCO)C(=O)N1N` (centres undefined), the GI50 in the experiment with SNB-78 is > 100 µM (inactive); in the experiment with DLD-1 it was > 100 µM (inactive); in the experiment with KM-20L2, > 100 µM (inactive); in the experiment with DMS-114 it was > 100 µM (inactive); in the experiment on XF498, 16.1 µM (inactive); in the experiment on M19-MEL it was > 100 µM (inactive). In addition, the GI50 with LXFL 529 was > 100 µM (inactive).

Turning to `CCOP(=O)(OCC)OC(C#N)c1ccc(-c2ccccc2)cc1` (centres undefined), the GI50 with SNB-78 was 33 µM (inactive); in the experiment with DLD-1, 18.4 µM (inactive); in the experiment with DMS-273 it was 14.4 µM (inactive); in the experiment on KM-20L2, 41.3 µM (inactive); in the experiment on DMS-114, 15 µM (inactive); in the experiment on XF498, 23.9 µM (inactive). For the same compound, the figures for the GI50 in the experiment on M19-MEL and in the experiment on LXFL 529 were 21.9 µM (inactive) and 17.8 µM (inactive), respectively.

Take `CC(=O)OC1CC2(c3ccccc3)C(=O)c3ccccc3N2O1` (centres undefined): the GI50 in the experiment with SNB-78, with DLD-1, in the experiment with DMS-273, in the experiment on KM-20L2, in the experiment on DMS-114 and in the experiment with XF498 was > 100 µM (inactive) throughout. Further, the GI50 in the experiment on M19-MEL and in the experiment with LXFL 529 was > 100 µM (inactive) in each case.

`COC(=O)C12CCC(CC1=O)C2(C)C` (centres undefined): the GI50 with DLD-1 was > 100 µM (inactive); in the experiment with DMS-273, > 100 µM (inactive); in the experiment on KM-20L2, > 100 µM (inactive); in the experiment with DMS-114, 99.5 µM (inactive); in the experiment on XF498, > 100 µM (inactive).

As to `c1ccc(SC2(Sc3ccccc3)CCCC2)cc1`, the GI50 in the experiment with SNB-78, in the experiment on DLD-1, with RXF 631, with DMS-273, in the experiment on KM-20L2 and in the experiment on DMS-114 was > 100 µM (inactive) each time. The GI50 in the experiment with XF498 and in the experiment on M19-MEL was > 100 µM (inactive) each time.

As to `O=C(/C=C/c1ccccc1)CC1OC(=O)c2ccccc21` (centres undefined), the GI50 in the experiment on DLD-1 was > 100 µM (inactive); in the experiment with DMS-273, > 100 µM (inactive); in the experiment with KM-20L2, > 100 µM (inactive); in the experiment on DMS-114 it was 46.3 µM (inactive); with XF498 it was > 100 µM (inactive); in the experiment with M19-MEL, 45.8 µM (inactive). Moreover, in the experiment with LXFL 529, the GI50 is 46.7 µM (inactive).

Take `CC(C)(C)C(=O)C1CC(=O)c2ccccc2C1=O` (centres undefined): the GI50 with SNB-78 is 27.5 µM (inactive); in the experiment on DLD-1, 30.4 µM (inactive); in the experiment on RXF 631 it was 36.7 µM (inactive); in the experiment with KM-20L2, 38 µM (inactive); in the experiment on DMS-114, 33.9 µM (inactive); with XF498, 34.4 µM (inactive). In the experiment with M19-MEL, the GI50 is 32.9 µM (inactive).

Consider `N#CC(C#N)c1ccc(C(=O)N2CCC[C@H]2CO)cc1`, for which the GI50 in the experiment with DLD-1, with RXF 631, with DMS-273, in the experiment on KM-20L2, with DMS-114 and in the experiment on M19-MEL was > 100 µM (inactive) in each case. Besides, the GI50 in the experiment on LXFL 529 is > 100 µM (inactive).

As for `CCOc1ccc(NC(=O)/C(CC(=O)c2c[n+]([O-])c3ccccc3[n+]2[O-])=N\OCCCc2ccccc2)cc1`, the GI50 in the experiment on SNB-78, in the experiment on DLD-1, in the experiment on RXF 631, in the experiment on DMS-273, with KM-20L2 and with DMS-114 was > 100 µM (inactive) each time. The GI50 in the experiment on M19-MEL and in the experiment with LXFL 529 was > 100 µM (inactive) throughout.

Regarding `C#CCC(O)c1ccccc1C(O)CC#C` (centres undefined), the GI50 in the experiment with SNB-78 is 77.8 µM (inactive); with DLD-1, > 100 µM (inactive); in the experiment on DMS-273 it was > 100 µM (inactive); with KM-20L2, > 100 µM (inactive); in the experiment on DMS-114, > 100 µM (inactive); in the experiment on M19-MEL it was > 100 µM (inactive). Moreover, the GI50 with LXFL 529 is > 100 µM (inactive).

For `N#Cc1cc([N+](=O)[O-])ccc1NC(=O)C(=O)C(C(=O)/C=C/c1ccccc1)C1OC(=O)c2ccccc21` (centres undefined), the GI50 in the experiment with SNB-78, in the experiment with DLD-1, in the experiment with RXF 631, in the experiment with KM-20L2, in the experiment with DMS-114 and in the experiment on XF498 was > 100 µM (inactive) each time. In addition, the GI50 with M19-MEL and in the experiment on LXFL 529 was > 100 µM (inactive) throughout.

Regarding `COc1cc2ccc3c4ccccc4cnc3c2cc1OC`, the GI50 in the experiment on SNB-78, with DLD-1, in the experiment with RXF 631, in the experiment with KM-20L2, in the experiment with M19-MEL and in the experiment on LXFL 529 was > 100 µM (inactive) in each case.

Regarding `C/C(=N/NC(=O)C[N+](C)(C)C)C(CN(C)C)C(=O)Nc1ccccc1` (centres undefined), the GI50 in the experiment with DLD-1, in the experiment with DMS-273, in the experiment on KM-20L2, in the experiment on DMS-114, in the experiment on XF498 and in the experiment on M19-MEL was > 100 µM (inactive) throughout. In addition, in the experiment on LXFL 529, the GI50 was > 100 µM (inactive).

As to `Cc1cc(C)nc(NS(=O)(=O)c2ccc(Nc3c4ccccc4nc4c(C(=O)Nc5ccc(S(=O)(=O)N=C(N)N)cc5)cccc34)cc2)n1`, the GI50 with SNB-78, with DLD-1, in the experiment with RXF 631, in the experiment with DMS-273, in the experiment on KM-20L2 and in the experiment with DMS-114 was > 100 µM (inactive) in each case. Besides, the GI50 with M19-MEL is > 100 µM (inactive).

Regarding `COc1cccc2[s+]snc12`, the GI50 in the experiment on SNB-78 was 38.7 µM (inactive); in the experiment on DLD-1, 35.6 µM (inactive); with DMS-273, 53.2 µM (inactive); in the experiment on KM-20L2 it was > 100 µM (inactive); with XF498, 18.8 µM (inactive); in the experiment with M19-MEL it was 22.8 µM (inactive). The GI50 with LXFL 529 was 43.3 µM (inactive).

On to `COCCN1C2=CCCCC2=Nc2c1nc(N)[nH]c2=O`, for which the GI50 in the experiment with SNB-78, in the experiment with DLD-1, in the experiment on RXF 631, in the experiment on DMS-273, in the experiment on KM-20L2 and with DMS-114 was > 100 µM (inactive) throughout. For the same compound, the GI50 with XF498, in the experiment with M19-MEL and in the experiment on LXFL 529 was > 100 µM (inactive) throughout.

With `COc1cc(-c2c(C)c(C)nc(OC)c2C#N)cc(OC)c1OC`, the GI50 in the experiment with SNB-78 was 92 µM (inactive); in the experiment on DLD-1, > 100 µM (inactive); in the experiment on KM-20L2 it was > 100 µM (inactive); in the experiment on DMS-114, 49.8 µM (inactive); in the experiment with M19-MEL it was > 100 µM (inactive); with LXFL 529, 41.9 µM (inactive).

For the compound `CC1(C)COC(c2cccnc2/C=N/O)=N1`, the GI50 in the experiment with SNB-78, in the experiment with DLD-1, in the experiment with RXF 631, with DMS-273, in the experiment with KM-20L2 and with XF498 was > 100 µM (inactive) each time. For the same compound, the GI50 in the experiment on M19-MEL and with LXFL 529 was > 100 µM (inactive) each time.

In the case of `Cc1cc(N(CCC#N)CCC#N)ccc1/C=C1N=C(/C=C\c2ccccc2)N(NC(=O)CC(=O)Nc2ccccc2Cl)C\1=O`, the GI50 in the experiment on DLD-1, with RXF 631, in the experiment on KM-20L2, in the experiment with DMS-114, in the experiment on M19-MEL and in the experiment on LXFL 529 was > 100 µM (inactive) throughout.

With `CCCC1N2CCCCC2[C@@H]2c3[nH]c4ccccc4c3CCN12` (some centres undefined), the GI50 in the experiment on SNB-78 was 53.8 µM (inactive); in the experiment with DLD-1, > 100 µM (inactive); with DMS-273, > 100 µM (inactive); in the experiment on KM-20L2, > 100 µM (inactive); in the experiment on DMS-114 it was > 100 µM (inactive); in the experiment with XF498, > 100 µM (inactive). Besides, the GI50 in the experiment with M19-MEL and in the experiment with LXFL 529 was > 100 µM (inactive) each time.

With `O=C(O)[C@@H]1OCCOCCO[C@@H](C(=O)O)[C@H](C(=O)O)OCCOCCO[C@H]1C(=O)O`, the GI50 in the experiment with SNB-78 is > 100 µM (inactive); in the experiment with DLD-1, > 42.1 µM (inactive); with DMS-273 it was > 100 µM (inactive); in the experiment on KM-20L2, > 100 µM (inactive); with DMS-114, > 50.8 µM (inactive); in the experiment on XF498, > 30.3 µM (inactive). Moreover, the GI50 in the experiment with M19-MEL and in the experiment on LXFL 529 was > 100 µM (inactive) throughout.
